What all share (assay type): functional, organism-based
Test [1] concerns Plasmodium falciparum. Description: Antimalarial activity after 96hrs against Plasmodium falciparum GCO3 C2 mutant CRT/MDR1 by [3H]hypoxanthine uptake.
In test [2] the test system is Plasmodium falciparum. Put plainly: Antimalarial activity after 96 hrs against Plasmodium falciparum GCO3 C4 mutant CRT/MDR1 by [3H]hypoxanthine uptake.
Test [3] has as its system Plasmodium falciparum. Description: Antimalarial activity after 96 hrs against Plasmodium falciparum GCO3 C6 mutant CRT/MDR1 by [3H]hypoxanthine uptake.
In test [4] the test system is Plasmodium falciparum. Description: Antimalarial activity after 96 hrs against Plasmodium falciparum GCO3 SDD mutant CRT/MDR1 by [3H]hypoxanthine uptake.
For test [5], the system named is Plasmodium falciparum. Put plainly: Antimalarial activity after 96 hrs against Plasmodium falciparum GCO3 SND mutant CRT/MDR1 by [3H]hypoxanthine uptake.
In test [6] the test system is Plasmodium falciparum. Description: Antimalarial activity after 96 hrs against Plasmodium falciparum GCO3 CDY mutant CRT/MDR1 by [3H]hypoxanthine uptake.
For test [7], the system named is Plasmodium falciparum. Put plainly: Antimalarial activity after 96 hrs against Plasmodium falciparum 3BA6 by [3H]hypoxanthine uptake.
For test [8], the system named is Plasmodium falciparum. Put plainly: Antimalarial activity against Plasmodium falciparum 3BA6 SDD with CRT and MDR1 mutation after 96 hrs in [3H]hypoxanthine uptake. Conditions: 3BA6, MDR1.
Test [9] relates to Plasmodium falciparum. Description: Antimalarial activity after 96 hrs against Plasmodium falciparum 3BA6 SND mutant CRT/MDR1 by [3H]hypoxanthine uptake. The settings on record: 3BA6, MDR1.
Test [10] concerns Plasmodium falciparum. Put plainly: Antimalarial activity after 96 hrs against Plasmodium falciparum 3BA6 CDY mutant CRT/MDR1 by [3H]hypoxanthine uptake. Conditions: 3BA6, MDR1.
The subject of test [11] is Plasmodium falciparum. Put plainly: Antimalarial activity after 96 hrs against azithromycin-resistant Plasmodium falciparum Dd2 by [3H]hypoxanthine uptake.
For test [12], the system named is Plasmodium falciparum. Put plainly: Antimalarial activity after 96 hrs against azithromycin-resistant Plasmodium falciparum 7G8 by [3H]hypoxanthine uptake.
In test [13] the test system is Plasmodium falciparum. Description: Antimalarial activity after 96 hrs against Plasmodium falciparum 7G8 C1 mutant CRT/MDR1 by [3H]hypoxanthine uptake. The settings on record: 7G8, MDR1.
In test [14] the test system is Plasmodium falciparum. Put plainly: Antimalarial activity after 96 hrs against Plasmodium falciparum Dd2 C1 mutant CRT/MDR1 by [3H]hypoxanthine uptake.
In test [15] the test system is Plasmodium falciparum. Put plainly: Antimalarial activity after 48 hrs against Plasmodium falciparum 7G8 by [3H]hypoxanthine uptake.
The test system of test [16] is Plasmodium falciparum. Description: Antimalarial activity after 96 hrs against Plasmodium falciparum Dd2 by [3H]hypoxanthine uptake.
Test [17] concerns Plasmodium falciparum. Description: Antimalarial activity after 48 hrs against Plasmodium falciparum Dd2 by [3H]hypoxanthine uptake.
Test [18] concerns Plasmodium falciparum. Description: Antimalarial activity after 48 hrs against Plasmodium falciparum GCO3 by [3H]hypoxanthine uptake.
In test [19] the test system is Plasmodium falciparum. Description: Antimalarial activity after 96hrs against Plasmodium falciparum 7G8 by [3H]hypoxanthine uptake.
Test [20] relates to Plasmodium falciparum. Put plainly: Antimalarial activity after 96 hrs against Plasmodium falciparum GCO3 by [3H]hypoxanthine uptake.
For test [21], the system named is Plasmodium falciparum. Description: Antimalarial activity after 96 hrs against Plasmodium falciparum Dd2 T76K1 mutant CRT/MDR1 by [3H]hypoxanthine uptake.
For test [22], the system named is Plasmodium falciparum. Put plainly: Antimalarial activity after 96 hrs against Plasmodium falciparum 7G8 T76K1 mutant CRT/MDR1 by [3H]hypoxanthine uptake. Conditions: 7G8, MDR1.

This is an account of results in ChEMBL document CHEMBL1156420, “In vitro efficacy, resistance selection, and structural modeling studies implicate the malarial parasite apicoplast as the target of azithromycin” (J Biol Chem, 2007).

As a reminder, the IC50 is the concentration that gives 50% inhibition. Lower therefore signals higher potency.

For `CC[C@H]1OC(=O)[C@H](C)[C@@H](O[C@H]2C[C@@](C)(OC)[C@@H](O)[C@H](C)O2)[C@H](C)[C@@H](O[C@@H]2O[C@H](C)C[C@H](N(C)C)[C@H]2O)[C@](C)(O)C[C@@H](C)CN(C)[C@H](C)[C@@H](O)[C@]1(C)O` [AZITHROMYCIN], the IC50 in the test on Plasmodium falciparum [1] is 48 nM; in the test with Plasmodium falciparum [2], 66.7 nM; in the test with Plasmodium falciparum [3], 76.7 nM; in the test with Plasmodium falciparum [4], 63.3 nM; with Plasmodium falciparum [5] it was 47.8 nM; in the test on Plasmodium falciparum [6], 70.2 nM. Moreover, the concentration for half-maximal inhibition (IC50) in the test with Plasmodium falciparum [7] came out at 180 nM; in the test on Plasmodium falciparum [8], 155 nM; in the test on Plasmodium falciparum [9], 158 nM; in the test with Plasmodium falciparum [10], 194 nM; with Plasmodium falciparum [11] it was 1940 nM; in the test on Plasmodium falciparum [12] it was 3970 nM. In addition, the concentration for half-maximal inhibition (IC50) was determined as 142 nM in the test on Plasmodium falciparum [13]; 95.7 nM in the test with Plasmodium falciparum [14]; 15700 nM with Plasmodium falciparum [15]; 103 nM in the test with Plasmodium falciparum [16]; 3.46 µM with Plasmodium falciparum [17]; 22600 nM with Plasmodium falciparum [18]. The IC50 with Plasmodium falciparum [19] came to 228 nM; in the test with Plasmodium falciparum [20], 43.3 nM; in the test on Plasmodium falciparum [21] it was 122 nM; with Plasmodium falciparum [22], 115 nM.

In the case of `C[C@H]1c2cccc(O)c2C(=O)C2=C(O)[C@]3(O)C(=O)C(C(N)=O)=C(O)[C@@H](N(C)C)[C@@H]3[C@@H](O)[C@@H]21` [DOXYCYCLINE], the IC50 was 302 nM in the test with Plasmodium falciparum [11], 603 nM in the test on Plasmodium falciparum [12], 432 nM with Plasmodium falciparum [16] and 1440 nM in the test on Plasmodium falciparum [19].

For `CC[C@H]1OC(=O)[C@H](C)[C@@H](O[C@H]2C[C@@](C)(OC)[C@@H](O)[C@H](C)O2)[C@H](C)[C@@H](O[C@@H]2O[C@H](C)C[C@H](N(C)C)[C@H]2O)[C@](C)(O)C[C@@H](C)C(=O)[C@H](C)[C@@H](O)[C@]1(C)O` [ERYTHROMYCIN], the IC50 in the test on Plasmodium falciparum [11] was found to be 20300 nM; with Plasmodium falciparum [12], 39500 nM; in the test with Plasmodium falciparum [16], 9400 nM; in the test with Plasmodium falciparum [19], 34700 nM.

For `CN(C)[C@@H]1C(O)=C(C(N)=O)C(=O)[C@@]2(O)C(O)=C3C(=O)c4c(O)cccc4[C@@](C)(O)[C@H]3C[C@@H]12` [TETRACYCLINE], the concentration for half-maximal inhibition (IC50) in the test with Plasmodium falciparum [11] was 324 nM; with Plasmodium falciparum [12], 365 nM; in the test with Plasmodium falciparum [16], 397 nM; in the test with Plasmodium falciparum [19], 697 nM.

Consider `C=C(NC(=O)C(=C)NC(=O)c1csc(C2=N[C@@H]3c4csc(n4)[C@H]4NC(=O)c5csc(n5)[C@H]([C@](C)(O)[C@@H](C)O)NC(=O)[C@H]5CSC(=N5)/C(=C/C)NC(=O)[C@H]([C@@H](C)O)NC(=O)c5csc(n5)[C@]3(CC2)NC(=O)[C@H](C)NC(=O)C(=C)NC(=O)[C@H](C)NC(=O)[C@H]([C@@H](C)CC)N[C@@H]2C=Cc3c([C@H](C)O)cc(nc3[C@H]2O)C(=O)O[C@@H]4C)n1)C(N)=O` [THIOSTREPTON], for which the IC50 in the test on Plasmodium falciparum [11] stood at 175 nM; with Plasmodium falciparum [12] it was 217 nM; with Plasmodium falciparum [15], 688 nM; with Plasmodium falciparum [16] it was 292 nM; with Plasmodium falciparum [17] it was 2.11 µM; in the test with Plasmodium falciparum [18], 2280 nM. In addition, the IC50 in the test with Plasmodium falciparum [19] was 555 nM; in the test on Plasmodium falciparum [20] it was 916 nM.

On to `Oc1cc(Cl)ccc1Oc1ccc(Cl)cc1Cl` [TRICLOSAN], for which the IC50 is 774 nM with Plasmodium falciparum [15]; 4190 nM in the test on Plasmodium falciparum [16]; 6.26 µM in the test on Plasmodium falciparum [17]; 2710 nM in the test on Plasmodium falciparum [18]; 424 nM in the test on Plasmodium falciparum [19]; 1530 nM in the test with Plasmodium falciparum [20].
